Toxic doses and inconclusive results are not listed. Rule as the data show it: active = T/C of 150% or more; inactive = T/C below 125%.
Test system: L1210 leukemia ip in BDF1 mice, survival T/C
Experiment: NCI In Vivo Anticancer Drug Screen. Data for tumor model L1210 Leukemia (intraperitoneal) in B6D2F1 (BDF1) mice
Settings: endpoint: mean survival time, higher = longer survival
In short: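 Tumor was transplanted into mice, which were then dosed with test compound or vehicle alone. Survival was recorded for each group, and the treated figure was expressed relative to the control figure.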

[1] = dose: 25.0 mg/kg/injection, schedule: Q04DX003 (ip), vehicle: Klucel (hydroxypropylcellulose) (HPC)
[2] = dose: 50.0 mg/kg/injection, schedule: Q04DX003 (ip), vehicle: Klucel (hydroxypropylcellulose) (HPC)
[3] = dose: 100.0 mg/kg/injection, schedule: Q04DX003 (ip), vehicle: Klucel (hydroxypropylcellulose) (HPC)
[4] = dose: 200.0 mg/kg/injection, schedule: Q04DX003 (ip), vehicle: Klucel (hydroxypropylcellulose) (HPC)
[5] = dose: 50.0 mg/kg/injection, schedule: Q01DX009 (ip), vehicle: Klucel (hydroxypropylcellulose) (HPC)
[6] = dose: 100.0 mg/kg/injection, schedule: Q01DX009 (ip), vehicle: Klucel (hydroxypropylcellulose) (HPC)
[7] = dose: 200.0 mg/kg/injection, schedule: Q01DX009 (ip), vehicle: Klucel (hydroxypropylcellulose) (HPC)
[8] = dose: 100.0 mg/kg/injection, schedule: Q01DX009 (ip), vehicle: saline with Tween-80
[9] = dose: 100.0 mg/kg/injection, schedule: Q04DX003 (ip), vehicle: saline with Tween-80
[10] = dose: 200.0 mg/kg/injection, schedule: Q01DX009 (ip), vehicle: saline with Tween-80
[11] = dose: 200.0 mg/kg/injection, schedule: Q04DX003 (ip), vehicle: saline with Tween-80
[12] = dose: 400.0 mg/kg/injection, schedule: Q01DX009 (ip), vehicle: saline with Tween-80
[13] = dose: 400.0 mg/kg/injection, schedule: Q04DX003 (ip), vehicle: saline with Tween-80
[14] = dose: 100.0 mg/kg/injection, schedule: Q04DX003 (ip), vehicle: saline
[15] = dose: 200.0 mg/kg/injection, schedule: Q04DX003 (ip), vehicle: saline
[16] = dose: 400.0 mg/kg/injection, schedule: Q04DX003 (ip), vehicle: saline
[17] = dose: 100.0 mg/kg/injection, schedule: Q01DX001 (ip), vehicle: saline
[18] = dose: 100.0 mg/kg/injection, schedule: Q04DX002 (ip), vehicle: Klucel (hydroxypropylcellulose) (HPC)
[19] = dose: 200.0 mg/kg/injection, schedule: Q04DX002 (ip), vehicle: Klucel (hydroxypropylcellulose) (HPC)
[20] = dose: 400.0 mg/kg/injection, schedule: Q04DX002 (ip), vehicle: Klucel (hydroxypropylcellulose) (HPC)
[21] = dose: 200.0 mg/kg/injection, schedule: Q01DX001 (ip), vehicle: saline
[22] = dose: 400.0 mg/kg/injection, schedule: Q01DX001 (ip), vehicle: saline

Measured: T/C

ClCCN(CCCl)c1ccc(C=Nc2ccc(-c3ccccn3)cc2)cc1
inactive: dose: 50.0 mg/kg/injection, schedule: Q01DX001 (ip), vehicle: carboxymethylcellulose (CMC) 102 % of control | dose: 100.0 mg/kg/injection, schedule: Q01DX001 (ip), vehicle: carboxymethylcellulose (CMC) 96 % of control | dose: 200.0 mg/kg/injection, schedule: Q01DX001 (ip), vehicle: carboxymethylcellulose (CMC) 91 % of control | dose: 400.0 mg/kg/injection, schedule: Q01DX001 (ip), vehicle: carboxymethylcellulose (CMC) 100 % of control

CCOC(=O)Oc1c(OC)cc(C(=O)O[C@@H]2C[C@@H]3CN4CCc5c([nH]c6cc(OC)ccc56)[C@H]4C[C@@H]3[C@H](C(=O)OC)[C@H]2OC)cc1OC
inactive: [1] 101 % of control | [2] 106 % of control | [3] 95 % of control | [4] 98 % of control

CNc1ncnc(N(C)C)c1[N+](=O)[O-]
inactive: [5] 102 % of control | [6] 98 % of control | [7] 109 % of control

CSCSCC(NS(=O)(=O)c1ccc(C)cc1)C(=O)O (stereo not given)
inactive: [8] 109 % of control | [9] 107 % of control | [10] 109 % of control | [11] 96 % of control | [12] 104 % of control | [13] 105 % of control

COC(=O)Nc1c(C)cc(C)cc1C
inactive: [14] 94 % of control | [15] 94 % of control | [16] 98 % of control

C/C=C/C(C#N)Nc1ccccc1C(N)=O (stereo not given)
inactive: dose: 12.5 mg/kg/injection, schedule: Q04DX003 (ip), vehicle: Klucel (hydroxypropylcellulose) (HPC) 91 % of control | dose: 25.0 mg/kg/injection, schedule: Q01DX009 (ip), vehicle: Klucel (hydroxypropylcellulose) (HPC) 104 % of control | [1] 96 % of control | [5] 103 % of control | [2] 102 % of control | [6] 95 % of control | [3] 94 % of control

Cc1c(CCO)sc[n+]1Cc1cccc([N+](=O)[O-])c1
inactive: [17] 98 % of control

CC(C)c1ccc(N=Nc2ccc(N(C)C)cc2)cc1
inactive: [9] 95 % of control | [11] 95 % of control | [13] 94 % of control

CN(C)N=Nc1c(Cl)cc(Cl)cc1Cl
inactive: dose: 50.0 mg/kg/injection, schedule: Q01DX009 (ip), vehicle: saline with Tween-80 107 % of control | [8] 100 % of control | [10] 107 % of control

CN(C)c1ccc(C(=C(C#N)C#N)c2ccc(N(C)C)cc2)cc1
inactive: [6] 98 % of control | [3] 95 % of control | [7] 98 % of control | [4] 101 % of control | dose: 400.0 mg/kg/injection, schedule: Q01DX009 (ip), vehicle: Klucel (hydroxypropylcellulose) (HPC) 102 % of control | dose: 400.0 mg/kg/injection, schedule: Q04DX003 (ip), vehicle: Klucel (hydroxypropylcellulose) (HPC) 101 % of control

CC1(C)CCC2=C(C1)Nc1ccc(Cl)cc1NC2c1ccc([N+](=O)[O-])cc1 (stereo not given)
inactive: [18] 117 % of control | [19] 109 % of control | [20] 98 % of control

CCN(CC)c1ccccc1S(=O)(=O)O
inactive: [17] 104 % of control | [21] 95 % of control | [22] 98 % of control

CCn1c2ccccc2c2cc3ccnc(C)c3cc21
inactive: [18] 97 % of control | [19] 101 % of control | [20] 111 % of control

CCCNC(C)=O
inactive: dose: 100.0 mg/kg/injection, schedule: Q01DX009 (ip), vehicle: saline 102 % of control | dose: 200.0 mg/kg/injection, schedule: Q01DX009 (ip), vehicle: saline 101 % of control | dose: 400.0 mg/kg/injection, schedule: Q01DX009 (ip), vehicle: saline 91 % of control

CC(O)CN1CCOCC1 (stereo not given)
inactive: [14] 100 % of control | [15] 97 % of control | [16] 107 % of control

Cc1cc(Cl)nc2ccc(Cc3ccc(Br)cc3)cc12
inactive: [17] 95 % of control | [21] 96 % of control | [22] 91 % of control

O=c1cc(C(F)(F)F)[nH]c2ccc(F)cc12
inactive: dose: 5.0 mg/kg/injection, schedule: Q04DX003 (ip), vehicle: saline with Tween-80 102 % of control | dose: 10.0 mg/kg/injection, schedule: Q04DX003 (ip), vehicle: saline with Tween-80 90 % of control | dose: 20.0 mg/kg/injection, schedule: Q04DX003 (ip), vehicle: saline with Tween-80 97 % of control

Cn1cccc1/C=N/O
inactive: [18] 98 % of control | [19] 98 % of control | [20] 117 % of control

CSc1ccccc1NC(=O)c1cccc([N+](=O)[O-])c1
inactive: [18] 105 % of control | [19] 99 % of control | [20] 86 % of control

CCOC(=O)C(CCN1CCCCC1)c1cccc2ccccc12 (stereo not given)
inactive: [3] 100 % of control | [4] 88 % of control

COc1ccc(CC(=O)N2CCc3cc(OC)c(OC)cc3C2O)cc1OC (stereo not given)
inactive: [8] 96 % of control | [9] 100 % of control | [10] 91 % of control | [11] 103 % of control | [12] 88 % of control | [13] 102 % of control

CN(C)c1ccc(C(=O)c2ccc(N(C)C)c(N)c2)cc1N
inactive: dose: 100.0 mg/kg/injection, schedule: Q01DX001 (ip), vehicle: other 106 % of control | dose: 200.0 mg/kg/injection, schedule: Q01DX001 (ip), vehicle: other 92 % of control | dose: 400.0 mg/kg/injection, schedule: Q01DX001 (ip), vehicle: other 101 % of control

CC12CCC3c4ccc(OC(=O)c5ccc(N)cc5)cc4CCC3C1CCC2=O (stereo not given)
inactive: dose: 12.5 mg/kg/injection, schedule: Q04DX002 (ip), vehicle: saline with Tween-80 110 % of control | dose: 25.0 mg/kg/injection, schedule: Q04DX002 (ip), vehicle: saline with Tween-80 106 % of control | dose: 50.0 mg/kg/injection, schedule: Q04DX002 (ip), vehicle: saline with Tween-80 95 % of control | dose: 100.0 mg/kg/injection, schedule: Q01DX001 (sc), vehicle: steriod suspending solution 95 % of control | dose: 200.0 mg/kg/injection, schedule: Q01DX001 (sc), vehicle: steriod suspending solution 97 % of control | dose: 400.0 mg/kg/injection, schedule: Q01DX001 (sc), vehicle: steriod suspending solution 95 % of control

CC1(C)c2ccccc2Nc2ccccc21
inactive: [8] 86 % of control | [9] 97 % of control | [10] 89 % of control | [11] 101 % of control | [12] 89 % of control | [13] 98 % of control

CCCCN1CCCC(OC(=O)N(C)C)C1 (stereo not given)
inactive: dose: 25.0 mg/kg/injection, schedule: Q04DX002 (ip), vehicle: saline 105 % of control | dose: 50.0 mg/kg/injection, schedule: Q04DX002 (ip), vehicle: saline 102 % of control | dose: 100.0 mg/kg/injection, schedule: Q04DX002 (ip), vehicle: saline 97 % of control

CCCOC(=O)NCCSC(=O)OCCC
inactive: dose: 100.0 mg/kg/injection, schedule: Q01DX001 (ip), vehicle: saline with Tween-80 95 % of control | dose: 200.0 mg/kg/injection, schedule: Q01DX001 (ip), vehicle: saline with Tween-80 95 % of control | dose: 400.0 mg/kg/injection, schedule: Q01DX001 (ip), vehicle: saline with Tween-80 108 % of control

CC(C)(COCOCC(C)(C)[N+](=O)[O-])[N+](=O)[O-]
inactive: [9] 100 % of control | [11] 103 % of control | [13] 100 % of control

COc1cccc(NC(=O)c2ccc(C(=O)Nc3cccc(OC)c3)cc2)c1
inactive: dose: 50.0 mg/kg/injection, schedule: Q01DX001 (ip), vehicle: saline 98 % of control | [17] 96 % of control | [21] 91 % of control

CCOC(=O)COc1ccc(N=NN(C)c2ccccc2)cc1
inactive: dose: 111.0 mg/kg/injection, schedule: Q01DX Z (ip), vehicle: carboxymethylcellulose (CMC) 102 % of control | dose: 166.0 mg/kg/injection, schedule: Q01DX Z (ip), vehicle: carboxymethylcellulose (CMC) 104 % of control | dose: 250.0 mg/kg/injection, schedule: Q01DX Z (ip), vehicle: carboxymethylcellulose (CMC) 113 % of control
